Among the data in PubChem BioAssay AID2060619 (Molecular Pharmacology Branch, DTP, NCI, 2025) are IC50 and viability, T/C values, retold here.

This assay relates to 323965-272-R-J2-PDC complex spheroid viability. The assay is described as follows: Anticancer human tumor 323965-272-R-J2-PDC patient-derived pancreatic carcinoma cell line growth inhibition [CLK]. As to conditions: for viability, T/C: stronger effect = lower value. The method in brief: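 Patient-derived tumor cells grown as complex spheroids with HUVEC endothelial cells and mesenchymal stem cells, treated with drug combinations. Concentrations descend in half-log steps from near clinical Cmax, or from 10 microM if Cmax unknown.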

The mark [1] stands for this setting: curve of first compound, second compound 0.0316 µM.
Setting [2] is: curve of first compound, second compound 0.1 µM.
[3] abbreviates: curve of first compound, second compound 0.316 µM.
Setting [4] is: curve of first compound, second compound 1 µM.
Where [5] appears, read: curve of first compound, second compound 3.16 µM.
[6] abbreviates: curve of first compound, second compound 10 µM.
[7] abbreviates: second compound 0.0316 µM, first compound 0.0316 µM.
The mark [8] stands for this setting: second compound 0.0316 µM, first compound 0.1 µM.
Where [9] appears, read: second compound 0.0316 µM, first compound 0.316 µM.
[10] abbreviates: second compound 0.0316 µM, first compound 1 µM.
The mark [11] stands for this setting: second compound 0.0316 µM, first compound 3.16 µM.
Where [12] appears, read: second compound 0.0316 µM, first compound 10 µM.
Setting [13] is: second compound 0.1 µM, first compound 0.0316 µM.
Setting [14] is: second compound 0.1 µM, first compound 0.1 µM.
[15] abbreviates: second compound 0.1 µM, first compound 0.316 µM.
Where [16] appears, read: second compound 0.1 µM, first compound 1 µM.
The mark [17] stands for this setting: second compound 0.1 µM, first compound 3.16 µM.
The mark [18] stands for this setting: second compound 0.1 µM, first compound 10 µM.
The mark [19] stands for this setting: second compound 0.316 µM, first compound 0.0316 µM.
The mark [20] stands for this setting: second compound 0.316 µM, first compound 0.1 µM.
Setting [21] is: second compound 0.316 µM, first compound 0.316 µM.
The mark [22] stands for this setting: second compound 0.316 µM, first compound 1 µM.
Setting [23] is: second compound 0.316 µM, first compound 3.16 µM.
Where [24] appears, read: second compound 0.316 µM, first compound 10 µM.
Setting [25] is: second compound 1 µM, first compound 0.0316 µM.
Setting [26] is: second compound 1 µM, first compound 0.1 µM.
Setting [27] is: second compound 1 µM, first compound 0.316 µM.
The mark [28] stands for this setting: second compound 1 µM, first compound 1 µM.
Setting [29] is: second compound 1 µM, first compound 3.16 µM.
Where [30] appears, read: second compound 1 µM, first compound 10 µM.
[31] abbreviates: second compound 3.16 µM, first compound 0.0316 µM.
Where [32] appears, read: second compound 3.16 µM, first compound 0.1 µM.
Setting [33] is: second compound 3.16 µM, first compound 0.316 µM.
[34] abbreviates: second compound 3.16 µM, first compound 1 µM.
The mark [35] stands for this setting: second compound 3.16 µM, first compound 3.16 µM.
Where [36] appears, read: second compound 3.16 µM, first compound 10 µM.
The mark [37] stands for this setting: second compound 10 µM, first compound 0.0316 µM.
The mark [38] stands for this setting: second compound 10 µM, first compound 0.1 µM.
The mark [39] stands for this setting: second compound 10 µM, first compound 0.316 µM.
[40] abbreviates: second compound 10 µM, first compound 1 µM.
Setting [41] is: second compound 10 µM, first compound 3.16 µM.
Setting [42] is: second compound 10 µM, first compound 10 µM.

Where “and” joins values, the source holds several entries; their conditions need not be identical. Equal values may be shown once.
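Note: spheroids exposed to agents for seven days before readout.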
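Throughout, for viability, T/C: percent of DMSO vehicle control wells so 100% = untreated growth.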

One may read the IC50 as the midpoint of a concentration-inhibition curve. The viability, T/C is the result in the treated group divided by that in the control group, in per cent. As to `O=c1[nH]cc(F)c(=O)[nH]1` + CN1CCN(c2cc(C(=O)Nc3cc4cc(-c5cnn(C)c5)ccc4cn3)ccn2)CC1, the IC50 under setting [1] was determined as 7400 nM; the IC50 under setting [2] turned out to be 3150 nM; the IC50 under setting [3] was < 31.6 nM; the IC50 under setting [4] was < 31.6 nM; the IC50 under setting [5] is < 31.6 nM; the IC50 under setting [6] is < 31.6 nM. For the same compound, the viability, T/C was 99.5% under setting [7]; 96.8% under setting [8]; 99.3% under setting [9]; 85.8% under setting [10]; 63% under setting [11]; 45.4% under setting [12]. The viability, T/C runs as follows: under setting [13], 62.8%; under setting [14], 85.4%; under setting [15], 73.5%; under setting [16], 67.4%; under setting [17], 50.2%; under setting [18], 36.7%. Besides, the viability, T/C reads like this: under setting [19], 26.1%; under setting [20], 27%; under setting [21], 26.6%; under setting [22], 25.2%; under setting [23], 24.5%; under setting [24], 22.6%. Also, the viability, T/C runs as follows: under setting [25], 3.34%; under setting [26], 2.81%; under setting [27], 3.78%; under setting [28], 3.65%; under setting [29], 4.75%; under setting [30], 3.29%. Besides, the viability, T/C is 4.71% under setting [31]; 4.34% under setting [32]; 4.13% under setting [33]; 4.08% under setting [34]; 6.26% under setting [35]; 5.19% under setting [36]. Further, the viability, T/C runs as follows: under setting [37], 3.98%; under setting [38], 3.73%; under setting [39], 3.94%; under setting [40], 4.27%; under setting [41], 7.34%; under setting [42], 3.84%.

As for `COC1C=CCC(C)C(C)S(=O)(=O)NC(=O)c2ccc3c(c2)N(CC2CCC21)CC1(CCCc2cc(Cl)ccc21)CO3` (centres undefined), the viability, T/C reads like this: (compound 0.0316 µM) 111% and 91.1%; (compound 0.1 µM) 108% and 91.9%; (compound 0.316 µM) 77.9% and 80.8%; (compound 1 µM) 61.1% and 61.5%; (compound 3.16 µM) 37.5% and 61%; (compound 10 µM) 10.5% and 25.6%. Further, the IC50 (curve of compound) was 1640 nM and 3650 nM.

With `COc1ccc([C@@H](O)c2cc(-c3ncnc4cc(N5CCOCC5)ccc34)c(F)cc2Cl)nn1`, the viability, T/C by setting is: (compound 0.0316 µM) 105% and 109%; (compound 0.1 µM) 116% and 106%; (compound 0.316 µM) 110% and 95.9%; (compound 1 µM) 92.8% and 92.9%; (compound 3.16 µM) 79.5% and 68.8%; (compound 10 µM) 50.6% and 50.3%. For the same compound, the IC50 (curve of compound) was > 10000 nM and 9920 nM.

Turning to `COc1ccc([C@@H](O)c2cc(-c3ncnc4cc(N5CCOCC5)ccc34)c(F)cc2Cl)nn1` + CNC(=O)c1ccc(Nc2nc(OC3CCCC3)c3c(-c4ccc5nc(C)oc5c4)c[nH]c3n2)c(OC)c1, the IC50 is, setting by setting: under setting [1], 9720 nM; under setting [2], > 10000 nM; under setting [3], 1500 nM; under setting [4], < 31.6 nM; under setting [5], < 31.6 nM; under setting [6], < 31.6 nM. The viability, T/C is 99.2% under setting [7]; 127% under setting [8]; 110% under setting [9]; 95.3% under setting [10]; 79.2% under setting [11]; 48.9% under setting [12]. Moreover, the viability, T/C reads like this: under setting [13], 85.9%; under setting [14], 79.9%; under setting [15], 77.7%; under setting [16], 70.7%; under setting [17], 63.8%; under setting [18], 49.1%. Further, the viability, T/C is, setting by setting: under setting [19], 62%; under setting [20], 67%; under setting [21], 49.9%; under setting [22], 52.1%; under setting [23], 49.4%; under setting [24], 40.3%. Also, the viability, T/C under setting [25] was 49.2%; the viability, T/C under setting [26] is 42.1%; the viability, T/C under setting [27] is 42.6%; the viability, T/C under setting [28] was 43%; the viability, T/C under setting [29] was 40.3%; the viability, T/C under setting [30] is 28.5%. In addition, the viability, T/C under setting [31] is 48.7%; the viability, T/C under setting [32] was 41.2%; the viability, T/C under setting [33] was 43.7%; the viability, T/C under setting [34] was 33.5%; the viability, T/C under setting [35] was 32.1%; the viability, T/C under setting [36] is 26.8%. In addition, the viability, T/C under setting [37] is 41.4%; the viability, T/C under setting [38] was 47.9%; the viability, T/C under setting [39] is 35.7%; the viability, T/C under setting [40] is 39.8%; the viability, T/C under setting [41] is 31.2%; the viability, T/C under setting [42] was 26.7%.

For the compound `O=C(c1cc(Cc2n[nH]c(=O)c3ccccc23)ccc1F)N1CCN(C(=O)C2CC2)CC1` + CN1CCN(c2cc(C(=O)Nc3cc4cc(-c5cnn(C)c5)ccc4cn3)ccn2)CC1, the IC50 was > 10000 nM under setting [1]; > 10000 nM under setting [2]; < 31.6 nM under setting [3]; < 31.6 nM under setting [4]; < 31.6 nM under setting [5]; < 31.6 nM under setting [6]. Besides, the viability, T/C under setting [7] was 91.1%; the viability, T/C under setting [8] was 93.4%; the viability, T/C under setting [9] was 87.4%; the viability, T/C under setting [10] was 102%; the viability, T/C under setting [11] is 93.5%; the viability, T/C under setting [12] is 80.2%. Further, the viability, T/C under setting [13] was 70.6%; the viability, T/C under setting [14] is 81.2%; the viability, T/C under setting [15] is 68.7%; the viability, T/C under setting [16] was 64.8%; the viability, T/C under setting [17] was 65.6%; the viability, T/C under setting [18] was 56.2%. The viability, T/C was 23.2% under setting [19]; 26.9% under setting [20]; 22.6% under setting [21]; 26.6% under setting [22]; 24.9% under setting [23]; 26.9% under setting [24]. The viability, T/C under setting [25] is 4.07%; the viability, T/C under setting [26] is 7.03%; the viability, T/C under setting [27] was 3.28%; the viability, T/C under setting [28] was 3.68%; the viability, T/C under setting [29] was 3.67%; the viability, T/C under setting [30] is 3.82%. Moreover, the viability, T/C under setting [31] is 5.15%; the viability, T/C under setting [32] was 4.92%; the viability, T/C under setting [33] is 4.78%; the viability, T/C under setting [34] was 4.57%; the viability, T/C under setting [35] was 5.09%; the viability, T/C under setting [36] is 7.05%. Also, the viability, T/C is, setting by setting: under setting [37], 4.14%; under setting [38], 5.28%; under setting [39], 5.97%; under setting [40], 4.83%; under setting [41], 4.72%; under setting [42], 6.29%.

Turning to `C=CC(=O)Nc1cc(Nc2nccc(-c3cn(C)c4ccccc34)n2)c(OC)cc1N(C)CCN(C)C`, the viability, T/C is 103% and 92.1% (compound 0.000949 µM); 80.7% and 91.7% (compound 0.003 µM); 97.6% and 86% (compound 0.00949 µM); 90.5% and 83.2% (compound 0.03 µM); 81.3% and 78.3% (compound 0.0949 µM); 87.5% and 75.6% (compound 0.3 µM). In addition, the IC50 (curve of compound) was > 300 nM.

As for `CC(CO)NC(=O)c1cc(-c2ccc(Cl)cc2)nn(-c2cnn(C)c2)c1=O` (centres undefined), the viability, T/C is, setting by setting: (compound 0.0316 µM) 93.7% and 115%; (compound 0.1 µM) 92.6% and 98.9%; (compound 0.316 µM) 94.8% and 101%; (compound 1 µM) 91.8% and 110%; (compound 3.16 µM) 106% and 116%; (compound 10 µM) 91.5% and 105%. Also, the IC50 (curve of compound) was > 10000 nM.
